Paper PMC8401465, “In Vitro Testing of Alternative Synthetic and Natural Antiparasitic Compounds against the Monogenean Sparicotyle chrysophrii” (Pathogens, 2021)
Where two headings read alike, the source gives them in different places.

What was measured:
Vibrio harveyi = assay: Bactericidal activity (MTT), Vibrio harveyi; format: cell-based; settings: for antimicrobial activity against V. harveyi: p < 0.05
Protocol: (§1) Two bacterial fish pathogens, Vibrio harveyi and V. anguillarum were used to test the bactericidal activity of the target compounds, being previously isolated and identified as described in [65]. Lab strains were maintained at −20 °C in Tryptone Soy Broth (TSB, Difco Laboratories, Inc., Detroit, MI, USA) supplemented with 1% (w/v) NaCl (TSB1) and 50% (v/v) glycerol. […] Bacteria in TSB medium were then cultured at the same temperature with continuous shaking (100 rpm) for 24 h. Exponentially grown bacteria were resuspended in sterile PBS and adjusted to the concentration of 10^8 colony forming units (cfu)/mL. Each target compound (20 μL; concentrations 0.1, 1, and 10 µM) was added (in triplicates) to the wells of a flat-bottom 96-well plate, except for the positive control that consisted of 0.5% DMSO in PBS. Aliquots of 20 μL of the previously cultured bacteria were added, and the plate was incubated for 5 h at 25 °C. […] The plate was then centrifuged (4500 rpm, 10 min) and the precipitate dissolved in 200 μL of DMSO. The solution (100 μL) from each well was transferred to another flat-bottom 96-well plate. The absorbance of the dissolved formazan was measured at 570 nm. Bactericidal activity was expressed as percentage of nonviable bacteria, calculated as the difference between absorbance of surviving bacteria compared to the absorbance of bacteria in positive controls (100%).

Vibrio anguillarum = assay: Bactericidal activity (MTT), Vibrio anguillarum; format: cell-based
Protocol: as §1

[1] = tested on: Sparicotyle chrysophrii adults; assay: microbe, parasite or virus in culture; settings: for LC20 (95% CI), toxicity level for adult S. chrysophrii: 20% mortality; for LC50: read-out: LC50 (95% CI), toxicity level for adult S. chrysophrii; for LC80 (95% CI), toxicity level for adult S. chrysophrii: 80% mortality; for b (SE), slope of dose–response model / e (SE), midpoint of dose–response model: Weibull type 2, c = 0, d = 1, mortality at 4 h post-exposure; for fold less toxic for S. chrysophrii than eucalyptol and garlicin 80%: comparison with eucalyptol and garlicin 80%; for fold lower toxicity for S. chrysophrii than curcumin: comparison with curcumin
Protocol: Subsequently, the monogeneans (n = 6, in triplicate) were exposed to a range of seven concentrations tailored according to each compound’s activity observed in preliminary tests. The range for each compound was scaled down to an appropriate order of magnitude so that each compound reached 100% mortality at 4 h post-exposure (Table 1).
For the dose–response curve fitting, the drc package for R (v4.0.4) was used. An appropriate nonlinear regression model was selected between log-logistic and Weibull type models, based on the Akaike information criterion (AIC) and lack-of-fit test criteria through the use of mselect function. The best scoring model was Weibull type 2 model (asymmetrical) with lower and upper limits fixed to 0 and 1, respectively, as mortality in all assays reached 100%. […] Model parameters and estimated lethal doses (20%, 50%, and 80%) were calculated with standard errors and 95% confidence intervals, based on the delta method, respectively, and adjusted for simultaneous inference through multcomp package. Dose–response curves were visualised using ggplot2 library.

[2] = 0.1 µM, 5 h at 25 °C, read-out: Bactericidal activity (%)
[3] = 1 µM, 5 h at 25 °C, read-out: Bactericidal activity (%)
[4] = 10 µM, 5 h at 25 °C, read-out: Bactericidal activity (%)
[5] = 50% mortality, 4 h post-exposure

CC(C)=C[C@@H]1[C@@H](C(=O)O)C1(C)C (relative stereo) [(+)-trans-Chrysanthemic acid]
inhibition (Vibrio harveyi; [2]): -47.7 ± 5.9%
inhibition (Vibrio harveyi; [3]): -25.4 ± 14.6%
inhibition (Vibrio harveyi; [4]): 13.2 ± 6.5%
potency / effect against V. anguillarum as judged in the discussion (Vibrio anguillarum): the effect was observed only against V. anguillarum
inhibition (Vibrio anguillarum; [2]): -1.4 ± 13%
inhibition (Vibrio anguillarum; [3]): 8.15 ± 16.3%
inhibition (Vibrio anguillarum; [4]): 32 ± 9%
antibacterial activity against V. anguillarum (Vibrio anguillarum; among the natural compounds, p < 0.05): strongest antibacterial activity
LC20 (95% CI), toxicity level for adult S. chrysophrii ([1]; 4 h post-exposure): 0.58 (0.43–0.74) mM
LC50 [1, 5]: 840 µM
LC80 (95% CI), toxicity level for adult S. chrysophrii ([1]; 4 h post-exposure): 1.1 (0.79–1.41) mM
b (SE), slope of dose–response model [1]: 3.12 (0.69)
e (SE), midpoint of dose–response model [1]: 0.94 (0.07)
fold less toxic for S. chrysophrii than eucalyptol and garlicin 80% [1]: approximately 1.2

CC12CCC(CC1)C(C)(C)O2 [Eucalyptol]
potency / effect against V. harveyi as judged in the discussion (Vibrio harveyi): highest anti-Vibrio harveyi effect among tested natural compounds
antimicrobial activity against V. harveyi (Vibrio harveyi; 10 µM): significant antimicrobial activity
inhibition at 0.1 µM (Vibrio harveyi; Vibrio harveyi, 0.1 µM, 5 h at 25 °C, read-out: Bactericidal activity (%)): -2.7 ± 8.7%
inhibition at 1 µM (Vibrio harveyi; Vibrio harveyi, 1 µM, 5 h at 25 °C, read-out: Bactericidal activity (%)): -1.9 ± 12.3%
inhibition at 10 µM (Vibrio harveyi; Vibrio harveyi, 10 µM, 5 h at 25 °C, read-out: Bactericidal activity (%)): 50.3 ± 6.8%
potency / effect against V. anguillarum as judged in the discussion (Vibrio anguillarum): ineffective against V. anguillarum
inhibition at 0.1 µM (Vibrio anguillarum; Vibrio anguillarum, 0.1 µM, 5 h at 25 °C, read-out: Bactericidal activity (%)): -31.7 ± 156%
inhibition at 1 µM (Vibrio anguillarum; Vibrio anguillarum, 1 µM, 5 h at 25 °C, read-out: Bactericidal activity (%)): -34.1 ± 10.5%
inhibition at 10 µM (Vibrio anguillarum; Vibrio anguillarum, 10 µM, 5 h at 25 °C, read-out: Bactericidal activity (%)): 23.6 ± 3.1%
LC20 (95% CI), toxicity level for adult S. chrysophrii ([1]; 4 h post-exposure): 0.5 (0.38–0.63) mM
LC80 (95% CI), toxicity level for adult S. chrysophrii ([1]; 4 h post-exposure): 0.83 (0.71–0.94) mM
LC50 ([1]; Sparicotyle chrysophryii, 4 h): 670 µM
b (SE), slope of dose–response model [1]: 3.99 (0.7)
e (SE), midpoint of dose–response model [1]: 0.74 (0.03)
fold lower toxicity for S. chrysophrii than curcumin [1]: approximately 3

Oc1c(Cl)cc(Cl)cc1Sc1cc(Cl)cc(Cl)c1O [Bithionate sodium, 2,2′-sulfanediylbis(4,6-dichlorophenolate), reference compound]
inhibition (Vibrio harveyi; [2]): -8.8 ± 1.8%
inhibition (Vibrio harveyi; [3]): 3.5 ± 11.6%
inhibition (Vibrio harveyi; [4]): 40 ± 0.7%
bactericidal activity against V. harveyi (Vibrio harveyi; synthetic compounds, at increased concentrations): significant bactericidal activity
inhibition (Vibrio anguillarum; [2]): 4.9 ± 11.8%
inhibition (Vibrio anguillarum; [3]): 49.2 ± 11.6%
antimicrobial activity against V. anguillarum (Vibrio anguillarum; 10 µM, p < 0.05): best antimicrobial activity
inhibition (Vibrio anguillarum; [4]): 96.4 ± 1.7%
LC20 (95% CI), toxicity level for adult S. chrysophrii ([1]; 4 h post-exposure): 0.003 (0.002–0.005) mM
LC50 [1, 5]: 5 to 10 µM
LC80 (95% CI), toxicity level for adult S. chrysophrii ([1]; 4 h post-exposure): 0.01 (0.01–0.01) mM
b (SE), slope of dose–response model [1]: 1.93 (0.36)
e (SE), midpoint of dose–response model [1]: 0.01 (0.001)

1R-Camphor
inhibition (Vibrio harveyi; [2]): -23.6 ± 2.6%
inhibition (Vibrio harveyi; [3]): 7.7 ± 10.7%
inhibition (Vibrio harveyi; [4]): 9.3 ± 7.4%
inhibition (Vibrio anguillarum; [2]): -38.8 ± 22%
inhibition (Vibrio anguillarum; [3]): -27.8 ± 19%
inhibition (Vibrio anguillarum; [4]): -17.4 ± 9.3%
LC20 (95% CI), toxicity level for adult S. chrysophrii ([1]; 4 h post-exposure): 0.71 (0.53–0.89) mM
LC50 [1, 5]: 910 µM
LC80 (95% CI), toxicity level for adult S. chrysophrii ([1]; 4 h post-exposure): 1.1 (0.94–1.26) mM
b (SE), slope of dose–response model [1]: 4.54 (0.91)
e (SE), midpoint of dose–response model [1]: 0.99 (0.05)
fold less toxic for S. chrysophrii than eucalyptol and garlicin 80% [1]: approximately 1.2

C=CCSSCC=C [Garlicin 80%]
potency / effect against V. harveyi as judged in the discussion (Vibrio harveyi): highest anti-Vibrio harveyi effect among tested natural compounds
inhibition (Vibrio harveyi; [2]): 20.9 ± 19.9%
inhibition (Vibrio harveyi; [3]): 28.7 ± 6.2%
antimicrobial activity against V. harveyi (Vibrio harveyi; 10 µM): significant antimicrobial activity
inhibition (Vibrio harveyi; [4]): 42 ± 1.3%
potency / effect against V. anguillarum as judged in the discussion (Vibrio anguillarum): ineffective against V. anguillarum
inhibition (Vibrio anguillarum; [2]): -110 ± 84.2%
inhibition (Vibrio anguillarum; [3]): -46 ± 17.2%
inhibition (Vibrio anguillarum; [4]): -52.1 ± 31.4%
LC20 (95% CI), toxicity level for adult S. chrysophrii ([1]; 4 h post-exposure): 0.4 (0.27–0.53) mM
LC50 [1, 5]: 600 µM
LC80 (95% CI), toxicity level for adult S. chrysophrii ([1]; 4 h post-exposure): 0.81 (0.66–0.95) mM
b (SE), slope of dose–response model [1]: 2.79 (0.49)
e (SE), midpoint of dose–response model [1]: 0.68 (0.04)
fold lower toxicity for S. chrysophrii than curcumin [1]: approximately 3
